Laboratory results reported in patent US20250346616A1 (DIZAL (JIANGSU) PHARMACEUTICAL CO., LTD., priority 2022, published 2025).

Experiments:
pMYPT1 = assay: Cellular PD assay, pMYPT1 in PASMC (western blot); format: cell-based; settings: Human Pulmonary Artery Smooth Muscle Cells, 30 min incubation
Procedure: (§1) PASMC (Human Pulmonary Artery Smooth Muscle Cells) were grown in Smooth Muscle Cell Growth medium (Promocell #C-22162). The cells were resuspended at 3×10^5 cells per well in 6-well plate in Smooth Muscle Cell Growth medium (Promocell #C-22162) and incubated compound concentration range: (10000/1111/333/111/37/12.3/4.1/0.41/0 nM) for 30 min.
(§2) Cells were then placed on ice and washed with ice-cold PBS. Cell lysates were prepared with 2×SDS. Separate proteins by SDS-PAGE 2 hr, transfer of proteins form gel to membrane 90 min, Blocking the membrane with 5% milk 1 hr and incubation in primary antibody overnight at 4° C., Incubate the membrane in HRP-conjugated secondary antibody diluted in blocking buffer (1:2000) for 1 hour at room temperature. Detection using Amersham ECL plus western blotting detection system (LAS4000). The purified product was analysed by SDS PAGE and the amount of target protein calculated by gray scanning by Multi-Gauge V3.0 software.

pMLC2 = assay: Cellular PD assay, pMLC2 in PASMC (western blot); format: cell-based; settings: Human Pulmonary Artery Smooth Muscle Cells, 30 min incubation
Procedure: as §1, §2

Recombinant ROCK2 = Recombinant ROCK2 (Homo sapiens (Human), UniProt O75116); assay: Lance Ultra Kinase Assay, ROCK2 inhibition; format: biochemical; settings: ATP at Km, 30 min pre-incubation, 1 h reaction
Recombinant ROCK2, sequence (O75116 whole entry): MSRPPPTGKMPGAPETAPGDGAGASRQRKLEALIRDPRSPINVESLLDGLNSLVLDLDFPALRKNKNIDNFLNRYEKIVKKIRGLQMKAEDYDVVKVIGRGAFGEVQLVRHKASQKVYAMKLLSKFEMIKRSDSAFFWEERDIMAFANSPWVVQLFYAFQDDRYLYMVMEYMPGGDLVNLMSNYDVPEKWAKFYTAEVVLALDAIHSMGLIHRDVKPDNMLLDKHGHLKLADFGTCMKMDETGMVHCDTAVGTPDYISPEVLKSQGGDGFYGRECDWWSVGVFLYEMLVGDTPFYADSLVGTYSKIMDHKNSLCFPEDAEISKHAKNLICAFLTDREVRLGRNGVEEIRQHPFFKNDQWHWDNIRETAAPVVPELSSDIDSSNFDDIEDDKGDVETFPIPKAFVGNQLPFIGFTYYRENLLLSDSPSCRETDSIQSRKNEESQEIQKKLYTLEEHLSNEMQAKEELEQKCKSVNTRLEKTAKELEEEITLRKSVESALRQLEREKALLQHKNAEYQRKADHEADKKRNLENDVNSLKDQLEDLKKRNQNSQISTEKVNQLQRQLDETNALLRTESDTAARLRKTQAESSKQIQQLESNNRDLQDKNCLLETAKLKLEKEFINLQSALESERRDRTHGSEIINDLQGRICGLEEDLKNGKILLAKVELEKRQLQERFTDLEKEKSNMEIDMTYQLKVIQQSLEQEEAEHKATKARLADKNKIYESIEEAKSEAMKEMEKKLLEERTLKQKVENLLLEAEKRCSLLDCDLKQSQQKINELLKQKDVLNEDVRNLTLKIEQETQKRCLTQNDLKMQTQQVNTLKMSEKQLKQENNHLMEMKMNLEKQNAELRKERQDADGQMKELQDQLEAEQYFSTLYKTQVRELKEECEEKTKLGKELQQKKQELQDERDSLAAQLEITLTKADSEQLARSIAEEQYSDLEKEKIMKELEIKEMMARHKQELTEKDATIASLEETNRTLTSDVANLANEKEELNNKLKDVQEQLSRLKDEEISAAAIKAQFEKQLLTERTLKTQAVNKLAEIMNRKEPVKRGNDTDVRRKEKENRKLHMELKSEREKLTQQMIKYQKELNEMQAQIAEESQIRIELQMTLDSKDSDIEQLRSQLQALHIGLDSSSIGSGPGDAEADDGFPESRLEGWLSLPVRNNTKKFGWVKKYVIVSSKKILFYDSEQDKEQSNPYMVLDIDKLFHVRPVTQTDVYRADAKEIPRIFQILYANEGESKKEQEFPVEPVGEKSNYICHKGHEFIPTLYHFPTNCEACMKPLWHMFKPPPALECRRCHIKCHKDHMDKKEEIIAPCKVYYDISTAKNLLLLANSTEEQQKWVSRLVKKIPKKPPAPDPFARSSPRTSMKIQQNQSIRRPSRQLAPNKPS

Recombinant ROCK1 = Recombinant ROCK1 (Homo sapiens (Human), UniProt Q13464); assay: Lance Ultra Kinase Assay, ROCK1 inhibition; format: biochemical; settings: ATP at Km, 30 min pre-incubation, 1 h reaction
Recombinant ROCK1, sequence (Q13464 whole entry): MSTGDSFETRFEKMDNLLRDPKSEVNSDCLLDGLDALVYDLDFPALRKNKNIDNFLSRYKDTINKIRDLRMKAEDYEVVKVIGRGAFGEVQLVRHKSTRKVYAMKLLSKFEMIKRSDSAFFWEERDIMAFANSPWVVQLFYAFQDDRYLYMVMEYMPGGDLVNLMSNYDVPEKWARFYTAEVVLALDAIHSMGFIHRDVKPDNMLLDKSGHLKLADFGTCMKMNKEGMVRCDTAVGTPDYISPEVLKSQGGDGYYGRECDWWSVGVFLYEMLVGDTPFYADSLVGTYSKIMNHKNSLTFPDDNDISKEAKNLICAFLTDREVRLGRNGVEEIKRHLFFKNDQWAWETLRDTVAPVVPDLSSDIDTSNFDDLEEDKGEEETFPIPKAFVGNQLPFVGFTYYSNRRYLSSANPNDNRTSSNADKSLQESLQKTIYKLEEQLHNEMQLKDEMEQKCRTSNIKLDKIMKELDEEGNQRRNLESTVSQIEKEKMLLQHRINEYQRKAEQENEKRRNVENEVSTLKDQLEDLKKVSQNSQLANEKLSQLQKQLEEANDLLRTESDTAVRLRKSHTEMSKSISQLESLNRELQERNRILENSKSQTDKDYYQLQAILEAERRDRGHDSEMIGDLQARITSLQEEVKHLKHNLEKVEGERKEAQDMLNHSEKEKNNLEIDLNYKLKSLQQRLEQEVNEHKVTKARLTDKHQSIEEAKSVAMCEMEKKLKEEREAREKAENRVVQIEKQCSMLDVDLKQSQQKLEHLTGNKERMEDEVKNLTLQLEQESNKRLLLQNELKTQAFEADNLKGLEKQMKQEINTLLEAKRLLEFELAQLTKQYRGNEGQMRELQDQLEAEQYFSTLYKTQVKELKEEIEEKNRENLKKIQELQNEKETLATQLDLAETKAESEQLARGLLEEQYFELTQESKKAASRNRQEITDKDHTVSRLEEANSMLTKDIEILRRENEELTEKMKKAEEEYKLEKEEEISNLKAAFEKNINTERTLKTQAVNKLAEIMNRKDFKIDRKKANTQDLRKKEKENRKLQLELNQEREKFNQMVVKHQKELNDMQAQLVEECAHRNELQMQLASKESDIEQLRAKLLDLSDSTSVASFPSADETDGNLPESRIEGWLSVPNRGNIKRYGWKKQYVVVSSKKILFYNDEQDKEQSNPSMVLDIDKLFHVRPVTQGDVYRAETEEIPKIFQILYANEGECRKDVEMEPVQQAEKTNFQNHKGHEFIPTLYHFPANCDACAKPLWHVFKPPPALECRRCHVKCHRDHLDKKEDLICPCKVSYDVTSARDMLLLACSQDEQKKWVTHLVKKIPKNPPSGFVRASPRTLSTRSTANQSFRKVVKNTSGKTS

HepG2 cells = assay: Cell-based phospholipidosis assay (LipidTOX Red); settings: Homo sapiens, 24 h, LipidTOX Red dye
Procedure: HepG2 cells were dispensed into Collagen I-coated 96-well black wall/clear bottom assay plates at 5000 cells/90 μL/well.
The assay plates were then incubated at 37° C. for 24 h, […] of 8% paraformaldehyde (4% final) fixative solution containing 8 μg/ml Hoechst 33342 (4 ug/mL final) in DPBS was added to each well. After incubation at room temperature for 25 min, the assay plates were washed with DPBS. The assay plates were sealed and stored at 4° C. before imaging.
The fluorescence intensities (595 nm excitation, 615 nm emission for LipidTOX Red; 352 nm excitation, 461 nm emission for Hoechst 33342) were measured using an High Content Screening System (Operetta, PerkinElmer) with a 10×Fluor objective. […] Average intensities were subjected to Prism and EC50 were calculated.

| SMILES | IC50 (pMYPT1; PASMC, 0.5 h) [nM] | IC50 (pMLC2; PASMC, 0.5 h) [nM] | IC50 (Recombinant ROCK2) [nM] | IC50 (Recombinant ROCK1) [nM] | EC50 (HepG2 cells) [µM] | IC50 (pMYPT1) [nM] | IC50 (pMLC2) [nM] |
| --- | --- | --- | --- | --- | --- | --- | --- |
| CN1CCC(C(C(=O)Nc2cccc3c(-c4cn[nH]c4)c[nH]c23)c2ccccc2)CC1 (racemic) [Example 43, N-(3-(1H-pyrazol-4-yl)-1H-indol-7-yl)-2-(1-methylpiperidin-4-yl)-2-phenylacetamide] | 18 | 102 | 0.66 | 1.3 |  |  |  |
| NCC(C(=O)Nc1cccc2c(-c3cn[nH]c3)c[nH]c12)c1cccnc1 (racemic) [Example 31, N-(3-(1H-pyrazol-4-yl)-1H-indol-7-yl)-3-amino-2-(pyridin-3-yl)propanamide] |  | 31 | 0.48 | 1.2 | > 50 |  |  |
| NC[C@@H](C(=O)Nc1ccc2cnccc2c1)c1ccc(CO)cc1 [Netasudil-M1] |  |  |  |  |  | 22 | 14 |
| NCCN1CCN(C(C(=O)Nc2cccc3c(-c4cn[nH]c4)c[nH]c23)c2ccccc2)CC1 (racemic) [Example 105, 2-[4-(2-aminoethyl)piperazin-1-yl]-2-phenyl-N-[3-(1H-pyrazol-4-yl)-1H-indol-7-yl]acetamide] |  | 95 | 0.22 | 0.42 | 23.6 |  |  |
| NCC(C(=O)Nc1cccc2c(-c3cn[nH]c3)c[nH]c12)C1CCCCC1 (racemic) [Example 22, 3-amino-2-cyclohexyl-N-[3-(1H-pyrazol-4-yl)-1H-indol-7-yl]propanamide] | 1.5 | 13 | 0.88 | 1.1 |  |  |  |
| COc1cccc(C(CN)NC(=O)c2cccc3c(-c4cn[nH]c4)c[nH]c23)c1 (single isomer, unassigned) [Example 136, N-(2-amino-1-(3-methoxyphenyl)ethyl)-3-(1H-pyrazol-4-yl)-1H-indole-7-carboxamide] | 1.9 | 5.1 | 0.24 | 0.62 |  |  |  |
| CN1CCN(CC(C(=O)Nc2cccc3c(-c4cn[nH]c4)c[nH]c23)c2ccccc2)CC1 (racemic) [Example 37, N-(3-(1H-pyrazol-4-yl)-1H-indol-7-yl)-3-(4-methylpiperazin-1-yl)-2-phenylpropanamide] | 6.2 | 8 | 0.43 | 0.71 |  |  |  |
| NC[C@@H](C(=O)Nc1cccc2c(-c3cn[nH]c3)c[nH]c12)c1ccc(COC(=O)CCCCCO[N+](=O)[O-])cc1 [Example 10, [4-[(1S)-1-(aminomethyl)-2-oxo-2-[[3-(1H-pyrazol-4-yl)-1H-indol-7-yl]amino]ethyl]phenyl]methyl 6-nitrooxyhexanoate] | 10 | 8.1 |  | 1.6 | > 66.6 |  |  |
| CN1CCC(C(C(=O)Nc2cccc3c(-c4cn[nH]c4)c[nH]c23)c2ccccc2)CC1 (single isomer, unassigned) [Example 45, N-(3-(1H-pyrazol-4-yl)-1H-indol-7-yl)-2-(1-methylpiperidin-4-yl)-2-phenylacetamide] | 11 | 29 | 0.27 | 0.53 |  |  |  |
| NCC(C(=O)Nc1cccc2c(-c3cn[nH]c3)c[nH]c12)c1ccc(C(N)=O)cc1 (racemic) [Example 74, 4-(1-((3-(1H-pyrazol-4-yl)-1H-indol-7-yl)amino)-3-amino-1-oxopropan-2-yl)benzamide] |  |  | 0.62 | 2 | > 200 |  |  |
| NCC(C(=O)Nc1cccc2c(-c3cn[nH]c3)c[nH]c12)C1CCCOC1 (stereo not drawn) [Example 91, 3-amino-2-(oxan-3-yl)-N-[3-(1H-pyrazol-4-yl)-1H-indol-7-yl]propanamide] |  |  | 0.75 | 1.2 | 24.4 |  |  |
| NCC(Cc1ccccc1)C(=O)Nc1cccc2c(-c3cn[nH]c3)c[nH]c12 (racemic) [Example 52, 3-amino-2-benzyl-N-[3-(1H-pyrazol-4-yl)-1H-indol-7-yl]propanamide] |  | 12 | 0.59 | 0.93 |  |  |  |
| N#Cc1cccc(C(CN)C(=O)Nc2cccc3c(-c4cn[nH]c4)c[nH]c23)c1 (racemic) [Example 19, N-(3-(1H-pyrazol-4-yl)-1H-indol-7-yl)-3-amino-2-(3-cyanophenyl)propanamide] |  |  | 0.92 | 2.2 | > 50 |  |  |
| NC(C(=O)Nc1cccc2c(-c3cn[nH]c3)c[nH]c12)c1ccccc1 (racemic) [Example 7, N-(3-(1H-pyrazol-4-yl)-1H-indol-7-yl)-2-amino-2-phenylacetamide] |  | 13 |  | 34 |  |  |  |
| COc1cccc(C(CN)C(=O)Nc2ncnc3c(-c4cn[nH]c4)c[nH]c23)c1 (stereo not drawn) [Example 154, N-(7-(1H-pyrazol-4-yl)-5H-pyrrolo[3,2-d]pyrimidin-4-yl)-3-amino-2-(3-methoxyphenyl)propanamide] |  | 8.3 |  |  |  |  |  |
| NCC(C(=O)Nc1cccc2c(-c3cn[nH]c3)c[nH]c12)c1ccc(CO)nc1 (single isomer, unassigned) [Example 60, N-(3-(1H-pyrazol-4-yl)-1H-indol-7-yl)-3-amino-2-(6-(hydroxymethyl)pyridin-3-yl)propanamide] |  |  | 0.7 | 2.3 | > 50 |  |  |
| Cc1ccc(C(=O)OCc2ccc([C@@H](CN)C(=O)Nc3ccc4cnccc4c3)cc2)c(C)c1 [Netarsudil] |  |  |  |  | 0.89 |  |  |
| N[C@H](C(=O)Nc1cccc2c(-c3cn[nH]c3)c[nH]c12)c1ccccc1 [Example 9, (2S)-2-amino-2-phenyl-N-[3-(1H-pyrazol-4-yl)-1H-indol-7-yl]acetamide] | 2.2 | 15 |  | 0.24 |  |  |  |
| COc1ccc(C(CN)C(=O)Nc2cccc3c(-c4cn[nH]c4)c[nH]c23)cc1 (racemic) [Example 90, 3-amino-2-(4-methoxyphenyl)-N-[3-(1H-pyrazol-4-yl)-1H-indol-7-yl]propanamide] |  |  | 0.91 | 5.3 |  |  |  |
| COc1ccc(C(CN)NC(=O)c2cccc3c(-c4cn[nH]c4)c[nH]c23)cc1 (single isomer, unassigned) [Example 145, N-(2-amino-1-(4-methoxyphenyl)ethyl)-3-(1H-pyrazol-4-yl)-1H-indole-7-carboxamide] |  |  | 20 | 46 |  |  |  |
| CNC(=O)OCc1cccc(C(CN)C(=O)Nc2cccc3c(-c4cn[nH]c4)c[nH]c23)c1 (racemic) [Example 49, 3-(1-((3-(1H-pyrazol-4-yl)-1H-indol-7-yl)amino)-3-amino-1-oxopropan-2-yl)benzyl methylcarbamate] |  |  | 0.65 | 0.86 | > 200 |  |  |
| CC(=O)NCc1ccc(C(CN)C(=O)Nc2cccc3c(-c4cn[nH]c4)c[nH]c23)cc1 (racemic) [Example 99, N-(3-(1H-pyrazol-4-yl)-1H-indol-7-yl)-2-(4-(acetamidomethyl)phenyl)-3-aminopropanamide] |  |  | 1.1 | 3.2 |  |  |  |
| NC[C@@H](NC(=O)c1cccc2c(-c3cn[nH]c3)n[nH]c12)c1ccccc1 [Example 135, N-[(1S)-2-amino-1-phenyl-ethyl]-3-(1H-pyrazol-4-yl)-1H-indazole-7-carboxamide] | 26 | 1.3 | 1.2 | 4.5 |  |  |  |
| COc1cccc(C(CN)NC(=O)c2cccc3c(-c4cn[nH]c4)c[nH]c23)c1 (single isomer, unassigned) [Example 139, N-(2-amino-1-(3-methoxyphenyl)ethyl)-3-(1H-pyrazol-4-yl)-1H-indole-7-carboxamide] |  |  | 3.1 | 5.5 |  |  |  |
| O=C(Nc1cccc2c(-c3cn[nH]c3)c[nH]c12)C1CNCc2ccccc21 (racemic) [Example 133, N-(3-(1H-pyrazol-4-yl)-1H-indol-7-yl)-1,2,3,4-tetrahydroisoquinoline-4-carboxamide] |  |  | 31 | 44 |  |  |  |
| Cc1cccc(C(CN)C(=O)Nc2cccc3c(-c4cn[nH]c4)c[nH]c23)c1 (racemic) [Example 87, N-(3-(1H-pyrazol-4-yl)-1H-indol-7-yl)-3-amino-2-(m-tolyl)propanamide] |  |  | 0.18 | 0.29 |  |  |  |
| CN1CCN(CC(C(=O)Nc2cccc3c(-c4cn[nH]c4)c[nH]c23)c2ccccc2)CC1 (single isomer, unassigned) [Example 39, N-(3-(1H-pyrazol-4-yl)-1H-indol-7-yl)-3-(4-methylpiperazin-1-yl)-2-phenylpropanamide] |  |  | 116 | 175 |  |  |  |
| NCC(C(=O)Nc1cccc2c(-c3cn[nH]c3)c[nH]c12)C1CCCCC1 (single isomer, unassigned) [Example 23, N-(3-(1H-pyrazol-4-yl)-1H-indol-7-yl)-3-amino-2-cyclohexylpropanamide] | 4.3 | 3.5 | 0.13 | 0.19 |  |  |  |
